Results taken from patent US20230263822A1, “MODULATION OF FACTOR 11 EXPRESSION” (Ionis Pharmaceuticals, Inc., priority 2008, published 2023).

Columns and labels:
[1] = system: IL-1β, IL-6, IFN-γ, TNF-α, IL-8, MIP-1α, MCP-1, MIP-1β, RANTES; assay: Cytokine and chemokine assays in cynomolgus monkeys (Example 45); format: in vivo; settings: escalating dose regimen
Experimental: Groups, each consisting of two male and three female monkeys, were injected subcutaneously with ISIS 416838, ISIS 416850, ISIS 416858, ISIS 416864, or ISIS 417002 in escalating doses. Antisense oligonucleotide was administered to the monkeys at 5 mg/kg three times per a week for week 1; 5 mg/kg twice per week for weeks 2 and 3; 10 mg/kg three times per week for week 4; 10 mg/kg twice per week for weeks 5 and 6; 25 mg/kg three times per week for week 7; and 25 mg/kg twice per week for weeks 8, 9, 10, 11, and 12. One control group, consisting of two male and three female monkeys, was injected subcutaneously with PBS according to the same dosing regimen. An additional experimental group, consisting of two male and three female monkeys, was injected subcutaneously with ISIS 416850 in a chronic, lower dose regimen. Antisense oligonucleotide was administered to the monkeys at 5 mg/kg three times per week for week 1; 5 mg/kg twice per week for week 2 and 3; 10 mg/kg three times per week for week 4; and 10 mg/kg twice per week for weeks 5 to 12. Body weights were measured weekly. Blood samples were collected 14 days and 5 days before the start of treatment and subsequently once per week for Factor 11 protein activity analysis in plasma, fibrinogen measurement, PT and aPTT measurements, bleeding times, and measurement of various hematologic factors. On day 85, the monkeys were euthanized by exsanguination while under deep anesthesia, and organs harvested for further analysis.
Blood samples obtained from the monkey groups treated with PBS, ISIS 416850 and ISIS 416858 administered in the escalating dose regimen were sent to Pierce Biotechnology (Woburn, Mass.) for measurement of chemokine and cytokine levels. Levels of IL-1β, IL-6, IFN-γ, and TNF-α were measured using the respective primate antibodies and levels of IL-8, MIP-1α, MCP-1, MIP-1β and RANTES were measured using the respective cross-reacting human antibodies. Measurements were taken 14 days before the start of treatment and on day 85, when the monkeys were euthanized.

blood coagulation = assay: Ex vivo PT and aPTT in murine plasma, ISIS 404071 with LOVENOX (Example 16); design: species or system BALB/c mice; settings: for PT INR in murine plasma / aPTT INR in murine plasma: LOVENOX 0
Experimental: A control mouse group was treated with PBS, administered twice a week for 3 weeks. Five days after the last dose, the mice were sacrificed and plasma was collected. The low-molecular-weight (LMW) heparin, LOVENOX, was administered to the plasma ex vivo at varying concentrations of 0 μg/ml, 2.5 μg/ml, 5.0 μg/ml, and 7.5 μg/ml. PT and aPTT were measured 20 minutes after LOVENOX was administered.

[2] = Tail bleeding assay vs warfarin (Example 12); settings: mouse, in vivo; for Blood (tail bleeding, collected over 40 minutes): sc
Experimental: A separate control group of BALB/c mice was treated with PBS, administered subcutaneously twice a week for 3 weeks.
Mice were anesthetized in the chamber with isoflurane and a small piece of tail (approximately 4 mm from the tip) was cut with sterile scissors. The tail cut was immediately placed in a 15 mL Falcon tube filled with approximately 10 mL of 0.9% NaCl buffer solution warmed to 37° C. The blood was collected over the course of 40 minutes. The saline filled tubes were weighed both before and after bleeding.

[3] = Tail bleeding assay, combination with PLAVIX (Example 27); format: in vivo, BALB/c mice; settings: ISIS 404071 20 mg/kg, PLAVIX 0
Experimental: ISIS 404071 was administered subcutaneously at a dosage of 20 mg/kg twice a week for 3 weeks to 5 groups of eight BALB/c mice. After the last dose of ISIS 404071, mice were treated with 0 mg/kg, 6.25 mg/kg, 12.50 mg/kg, 25.00 mg/kg, or 50.00 mg/kg of PLAVIX. Two doses of PLAVIX were administered to the mice on day one and one dose of PLAVIX was administered on day two, two hours before bleeding.
Two hours after receiving their final treatment, mice were placed in a tail bleeding chamber. […] The blood was collected for the course of 40 minutes.

[4] = day −14 (before start of treatment)
[5] = ISIS 404071 10 mg/kg s.c. twice a week for 3 weeks
[6] = ISIS 404071 20 mg/kg s.c. twice a week for 3 weeks
[7] = ISIS 404071 40 mg/kg s.c. twice a week for 3 weeks
[8] = murine plasma, ISIS 404071 10-40 mg/kg in vivo, LOVENOX 0-7.5 μg/ml ex vivo

Substance	IFN-γ level ([1]; day 85)	IL-1β level ([1]; day 85)	IL-6 level ([1]; day 85)	IL-8 level ([1]; day 85)	MCP-1 level ([1]; day 85)	MIP-1α level ([1]; day 85)	MIP-1β level ([1]; day 85)	RANTES level ([1]; day 85)	TNF-α level ([1]; day 85)	IFN-γ level [1, 4]	IL-1β level [1, 4]	IL-6 level [1, 4]	IL-8 level [1, 4]	MCP-1 level [1, 4]	MIP-1α level [1, 4]	MIP-1β level [1, 4]	RANTES level [1, 4]	TNF-α level [1, 4]	further results
ISIS 416850: MOE gapmer, nucleobases 1275 to 1318 of SEQ ID NO: 1 (Table 8) (antisense TGCACAGTTTCTGGCAGGCC; MOE gapmer, wing and gap sizes not given here)	18 pg/mL	13 pg/mL	17 pg/mL	172 pg/mL	2330 pg/mL	41 pg/mL	216 pg/mL	83981 pg/mL	27 pg/mL	126 pg/mL	3 pg/mL	30 pg/mL	1659 pg/mL	1384 pg/mL	28 pg/mL	137 pg/mL	75335 pg/mL	14 pg/mL	
ISIS 404071: antisense oligonucleotide targeted to murine Factor 11 mRNA, TGGTAATCCACTTTCAGAGG, target start site 869 (chemistry not given here)																			PT INR in murine plasma (blood coagulation; [5]): 0.97 INR; aPTT INR in murine plasma (blood coagulation; [5]): 1.14 INR; PT INR in murine plasma (blood coagulation; [6]): 1.00 INR; aPTT INR in murine plasma (blood coagulation; [6]): 1.28 INR; PT INR in murine plasma (blood coagulation; [7]): 0.97 INR; aPTT INR in murine plasma (blood coagulation; [7]): 1.52 INR; PT (blood coagulation; [8]): does not significantly increase PT; aPTT (blood coagulation; [8]): also increases aPTT in a dose-dependent manner; bleeding in tail bleeding assay [2]: did not affect bleeding; Blood (tail bleeding, collected over 40 minutes) ([2]; 1.25 mg/kg): 0.00 g; Blood (tail bleeding, collected over 40 minutes) ([2]; 5 mg/kg): 0.03 g; Blood (tail bleeding, collected over 40 minutes) ([2]; 10 mg/kg): 0.00 g; Blood (tail bleeding, collected over 40 minutes) ([2]; 20 mg/kg): 0.06 g; Blood (tail bleeding, collected over 40 minutes) ([2]; 40 mg/kg): 0.03 g; Blood (tail bleeding, collected for 40 minutes) [3]: 0 g
ISIS 416858: MOE gapmer, nucleobases 1275 to 1318 of SEQ ID NO: 1 (Table 8) (antisense ACGGCATTGGTGCACAGTTT; MOE gapmer, wing and gap sizes not given here)	18 pg/mL	5 pg/mL	25 pg/mL	303 pg/mL	1752 pg/mL	41 pg/mL	221 pg/mL	125511 pg/mL	45 pg/mL	60 pg/mL	5 pg/mL	9 pg/mL	1552 pg/mL	1252 pg/mL	36 pg/mL	122 pg/mL	112253 pg/mL	9 pg/mL	
